Read-outs that look alike come from different tables or passages of the source.
System: H5V cells
Assay: Phototoxicity assay (PDT efficacy at two incubation times), neutral red survival
Type: cell-based, mouse
Details: for IC50: then 10 min illumination, 12 J/cm^2
Protocol: H5V cells (40×10^3/well) were cultured in 96-well plates for 24 h to ˜80% confluence. To determine phototoxicity, the culture medium was replaced with 100 μl/well medium, in the absence or presence of 10^−8 to 10^−6 M sensitizer, and incubated in the dark for 15 min or 3 h in the culture incubator. The plates (PDT group) were then placed in the light field at room temperature and illuminated from the bottom for 10 min (800>λ>650 nm, 12 J/cm^2). After illumination, the medium was changed to fresh culture medium. The cultures were then placed in the culture incubator and cell survival was determined 24 h later, using the neutral red survival assay described below.
Following 24 h post PDT the culture medium in the wells was replaced with 100 μl fresh medium containing 40 μg/ml neutral red. The plate was incubated for 1.5 h in a dark culture incubator. The medium was aspirated and the cells washed with 100 μl of solution containing 1% CaCl2 and 0.5% formaldehyde, which removes the unincorporated dye and fixes the cells to the substratum. The dye was then extracted from the cells into the supernatant upon addition of 100 μl 1% glacial acetic acid in 50% ethanol. After 1-2 min at room temperature, the optical density of the wells was determined in a microplate spectrophotometer using a 570 nm filter. After subtraction of assay blanks, net optical density was computed as the average value of triplicate determinations. Cell survival was calculated as the percent of the dye accumulated in the untreated control. To determine cell survival data was plotted against sensitizer concentration. These curves were then used to calculated LD50 values.
Following synthesis, the compounds described in the Examples 23 to 75 above were purified, divided into equal aliquots and lyophilized for storage (desiccated at −20° C.). The exact material content was determined by HPLC-diode array detection, and the PDT efficacy was evaluated at two incubation times as described in the experimental section.

[1] = 15 min incubation in the dark, read-out: IC50 15 min
[2] = 3 h incubation in the dark, read-out: IC50 3 hours

Molecule	IC50 [1]	IC50 [2]	PDT activity relative to compound 24 (at both incubation times)
Palladium 3^1-oxo-15-methoxycarbonylmethyl-Rhodobacteriochlorin-13^1-(2-N-dimethylaminoethyl)amide-17^3-(2-hydroxy ethyl)amide [Compound 65]	430 nM	220 nM	–
CCC1C2=Cc3c(C)c(C(=O)NCCNc4ccccn4)c4[n]3[Pd][n]3c(c(C)c(C(C)=O)c3=CC(=N2)C1C)=CC1=NC(=C4CC(=O)OC)C(CCC(=O)NCCNc2ccccn2)C1C (centres unmarked) [Compound 44, Palladium 3^1-oxo-15-methoxycarbonylmethyl-Rhodobacteriochlorin-13^1,17^3-di(2-N-(2′-pyridyl)aminoethyl)amide]	1410 nM	170 nM	–
CC[C@H]1C2=NC(=Cc3c(C(C)=O)c(C)c4[n]3[Pd][n]3c(c(C)c(C(=O)NCCN(CC)CC)c3=C(CC(=O)OC)C3=NC(=C4)[C@@H](C)[C@@H]3CCC(=O)NCCN(CC)CC)=C2)[C@@H]1C [Compound 45, Palladium 3^1-oxo-15-methoxycarbonylmethyl-Rhodobacteriochlorin-13^1, 17^3-di(2-N^2-diethylaminoethyl)amide]	200 nM	180 nM	–
CC[C@H]1C2=NC(=Cc3c(C(C)=O)c(C)c4[n]3[Pd][n]3c(c(C)c(C(=O)NCC(O)CO)c3=C(CC(=O)OC)C3=NC(=C4)[C@@H](C)[C@@H]3CCC(=O)NCCN3CCOCC3)=C2)[C@@H]1C (some centres unmarked) [Compound 53, Palladium 3^1-oxo-15-methoxycarbonylmethyl-Rhodobacteriochlorin-13^1-(2,3-dihydroxypropyl)amide-17^3-(2-morpholino-N-ethyl)amide]	2000 nM	900 nM	–
CC[C@H]1C2=NC(=Cc3c(C(C)=O)c(C)c4[n]3[Pd][n]3c(c(C)c(C(=O)NCCCNCCCN)c3=C(CC(=O)OC)C3=NC(=C4)[C@@H](C)[C@@H]3CCC(=O)O)=C2)[C@@H]1C [Compound 32, Palladium 3^1-oxo-15-methoxycarbonylmethyl-Rhodobacteriochlorin-13^1-(3-[(3-aminopropyl)amino]propyl)amide]	600 nM	250 nM	4-5 times
CC(=O)O.CC[C@H]1C2=NC(=Cc3c(C(C)=O)c(C)c4[n]3[Pd][n]3c(c(C)c(C(=O)NCCN(C)C)c3=C(CC(=O)OC)C3=NC(=C4)[C@@H](C)[C@@H]3CCC(=O)NCC(C)O)=C2)[C@@H]1C (some centres unmarked) [Compound 67, Palladium 3^1-oxo-15-methoxycarbonylmethyl-Rhodobacteriochlorin-13^1-(2-N^2-dimethylaminoethyl)amide-17^3-(2-hydroxypropyl)amide]	500 nM	180 nM	–
Palladium 3^1-oxo-15-methoxycarbonylmethyl-Rhodobacteriochlorin-13^1-(2,3-dihydroxypropyl)amide-17^3-(3-N-(2′-pyridyl)aminopropyl)amide [Compound 73]	380 nM	300 nM	–
CC[C@H]1C2=NC(=Cc3c(C(C)=O)c(C)c4[n]3[Pd][n]3c(c(C)c(C(=O)NCCN(C)C)c3=C(CC(=O)OC)C3=NC(=C4)[C@@H](C)[C@@H]3CCC(=O)NCC(O)CO)=C2)[C@@H]1C (some centres unmarked) [Compound 50, Palladium 3^1-oxo-15-methoxycarbonylmethyl-Rhodobacteriochlorin-13^1-(2-N^2-dimethylaminoethyl)amide-17^3-(2,3-dihydroxypropyl)amide]	470 nM	170 nM	–
CC[C@H]1C2=NC(=Cc3c(C(C)=O)c(C)c4[n]3[Pd][n]3c(c(C)c(C(=O)NCCN(C)C)c3=C(CC(=O)OC)C3=NC(=C4)[C@@H](C)[C@@H]3CCC(=O)NCCN(C)C)=C2)[C@@H]1C [Compound 36, Palladium 3^1-oxo-15-methoxycarbonylmethyl-Rhodobacteriochlorin-13^1, 17^3-di(2-N^2-dimethylaminoethyl)amide]	370 nM	150 nM	–
CC[C@H]1C2=NC(=Cc3c(C(C)=O)c(C)c4[n]3[Pd][n]3c(c(C)c(C(=O)NCC(O)CO)c3=C(CC(=O)OC)C3=NC(=C4)[C@@H](C)[C@@H]3CCC(=O)NCCN3CCNCC3)=C2)[C@@H]1C (some centres unmarked) [Compound 54, Palladium 3^1-oxo-15-methoxycarbonylmethyl-Rhodobacteriochlorin-13^1-(2,3-dihydroxypropyl)amide-17^3-(2-piperazino-N-ethyl)amide]	750 nM	270 nM	–
CC[C@H]1C2=NC(=Cc3c(C(C)=O)c(C)c4[n]3[Pd][n]3c(c(C)c(C(=O)NCCN5CCNCC5)c3=C(CC(=O)OC)C3=NC(=C4)[C@@H](C)[C@@H]3CCC(=O)O)=C2)[C@@H]1C [Compound 30, Palladium 3^1-oxo-15-methoxycarbonylmethyl-Rhodobacteriochlorin-13^1-(2-piperazino-N-ethyl)amide]	1700 nM	610 nM	–
CC[C@H]1C2=NC(=Cc3c(C(C)=O)c(C)c4[n]3[Pd][n]3c(c(C)c(C(=O)NCCNCCN)c3=C(CC(=O)OC)C3=NC(=C4)[C@@H](C)[C@@H]3CCC(=O)O)=C2)[C@@H]1C [Compound 27, Palladium 3^1-oxo-15-methoxycarbonylmethyl-Rhodobacteriochlorin-13^1-(2-[(2-aminoethyl)amino]ethyl)amide]	1500 nM	450 nM	–
CC[C@H]1C2=NC(=Cc3c(C(C)=O)c(C)c4[n]3[Pd][n]3c(c(C)c(C(=O)NCC(O)CO)c3=C(CC(=O)OC)C3=NC(=C4)[C@@H](C)[C@@H]3CCC(=O)NCCNCCN(CC)CC)=C2)[C@@H]1C (some centres unmarked) [Compound 52, Palladium 3^1-oxo-15-methoxycarbonylmethyl-Rhodobacteriochlorin-13^1-(2,3-dihydroxypropyl)amide-17^3-(2-[(2-N^2-diethylaminoethyl)amino]ethyl)amide]	830 nM	890 nM	–
Palladium 3^1-oxo-15-methoxycarbonylmethyl-Rhodobacteriochlorin-13^1-(2-N^2-dimethylaminoethyl)amide-17^3-((R)-2-hydroxypropyl)amide [Compound 68]	500 nM	160 nM	–
CC[C@H]1C2=NC(=Cc3c(C(C)=O)c(C)c4[n]3[Pd][n]3c(c(C)c(C(=O)NCCNCCN)c3=C(CC(=O)OC)C3=NC(=C4)[C@@H](C)[C@@H]3CCC(=O)NCC(O)CO)=C2)[C@@H]1C (some centres unmarked) [Compound 55, Palladium 3^1-oxo-15-methoxycarbonylmethyl-Rhodobacteriochlorin-13^1-(2-[(2-aminoethyl)amino]ethyl)amide-17^3-(2,3-dihydroxypropyl)amide]	1070 nM	430 nM	–
CC[C@H]1C2=NC(=Cc3c(C(C)=O)c(C)c4[n]3[Pd][n]3c(c(C)c(C(=O)NCC(O)CO)c3=C(CC(=O)OC)C3=NC(=C4)[C@@H](C)[C@@H]3CCC(=O)NCCN(CCN)CCN)=C2)[C@@H]1C (some centres unmarked) [Compound 58, Palladium 3^1-oxo-15-methoxycarbonylmethyl-Rhodobacteriochlorin-13^1-(2,3-dihydroxypropyl)amide-17^3-([2-bis(2-aminoethyl)amino]ethyl)amide]	640 nM	370 nM	–
CC[C@H]1C2=NC(=Cc3c(C(C)=O)c(C)c4[n]3[Pd][n]3c(c(C)c(C(=O)NCC(O)CO)c3=C(CC(=O)OC)C3=NC(=C4)[C@@H](C)[C@@H]3CCC(=O)NCCNCCN)=C2)[C@@H]1C (some centres unmarked) [Compound 51, Palladium 3^1-oxo-15-methoxycarbonylmethyl-Rhodobacteriochlorin-13^1-(2,3-dihydroxypropyl)amide-17^3-(2-[(2-aminoethyl)amino]ethyl)amide]	780 nM	400 nM	–
CC(=O)O.CC[C@H]1C2=NC(=Cc3c(C(C)=O)c(C)c4[n]3[Pd][n]3c(c(C)c(C(=O)NCCCCN)c3=C(CC(=O)OC)C3=NC(=C4)[C@@H](C)[C@@H]3CCC(=O)NCC(O)CO)=C2)[C@@H]1C (some centres unmarked) [Compound 61, Palladium 3^1-oxo-15-methoxycarbonylmethyl-Rhodobacteriochlorin-13^1-(4-aminobutyl)amide-17^3-(2,3-dihydroxypropyl) amide]	690 nM	210 nM	–
CC[C@H]1C2=NC(=Cc3c(C(C)=O)c(C)c4[n]3[Pd][n]3c(c(C)c(C(=O)NCCCN(C)C)c3=C(CC(=O)OC)C3=NC(=C4)[C@@H](C)[C@@H]3CCC(=O)NCCCN(C)C)=C2)[C@@H]1C [Compound 37, Palladium 3^1-oxo-15-methoxycarbonylmethyl-Rhodobacteriochlorin-13^1, 17^3-di(3-N^2-dimethylaminopropyl)amide]	750 nM	210 nM	–
CC(=O)O.CCNCCNC(=O)c1c(C)c2[n]3c1=C(CC(=O)OC)C1=NC(=Cc4c(C)c(C(C)=O)c([n]4[Pd]3)C=C3N=C(C=2)[C@H](CC)[C@H]3C)[C@@H](C)[C@@H]1CCC(=O)NCC(O)CO (some centres unmarked) [Compound 63, Palladium 3^1-oxo-15-methoxycarbonylmethyl-Rhodobacteriochlorin-13^1-(2-N-ethylaminoethyl)amide-17^3-(2,3-dihydroxypropyl)amide]	660 nM	210 nM	–

From patent US8207154B2, “Catatonic bacteriochlorophyll derivatives” (Yeda Research and Development Co., Ltd., priority 2005, dated 2012)
